Data as given in PubChem BioAssay AID1671224.

Target: Tyrosine-protein kinase BTK (Homo sapiens) (UniProt Q06187)
Assay: BTK kinase inhibition, dose response, biochemical, Z'-LYTE, FRET readout, direct format (AID 1671224)
Details: recombinant BTK, Z'-LYTE FRET peptide phosphorylation

Sequence of Tyrosine-protein kinase BTK (Homo sapiens) (Q06187 whole entry, looked up): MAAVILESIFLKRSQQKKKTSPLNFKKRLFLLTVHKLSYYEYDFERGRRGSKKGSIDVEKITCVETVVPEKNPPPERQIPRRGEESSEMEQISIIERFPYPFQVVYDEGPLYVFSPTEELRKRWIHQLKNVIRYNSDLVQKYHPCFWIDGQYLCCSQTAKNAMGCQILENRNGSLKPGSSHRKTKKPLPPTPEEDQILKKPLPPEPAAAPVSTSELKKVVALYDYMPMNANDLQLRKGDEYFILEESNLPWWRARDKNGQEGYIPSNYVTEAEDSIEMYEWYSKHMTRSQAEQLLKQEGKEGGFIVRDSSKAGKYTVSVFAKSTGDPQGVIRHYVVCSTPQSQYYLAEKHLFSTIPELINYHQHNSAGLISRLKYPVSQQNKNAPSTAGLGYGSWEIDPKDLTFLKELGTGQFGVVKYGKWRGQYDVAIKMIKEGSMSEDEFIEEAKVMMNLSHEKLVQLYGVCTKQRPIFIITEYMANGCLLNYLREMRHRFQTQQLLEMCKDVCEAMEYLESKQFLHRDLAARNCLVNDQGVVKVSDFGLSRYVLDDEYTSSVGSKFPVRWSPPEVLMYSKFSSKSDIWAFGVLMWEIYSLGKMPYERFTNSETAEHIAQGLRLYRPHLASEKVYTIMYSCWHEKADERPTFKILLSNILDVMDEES

`COc1cc2ncnc(Nc3cccc(Cl)c3)c2cc1OC` gave an IC50 of 3.61 µM.
